According to ChEMBL document CHEMBL3856235, “Characterization of 3,3-dimethyl substituted N-aryl piperidines as potent microsomal prostaglandin E synthase-1 inhibitors” (Bioorg Med Chem Lett, 2016):
Blank lines part the entries; values can stand above or below the compound they belong to.

Key:
Prostaglandin E synthase [1] = biological target: T1, Prostaglandin E synthase (Homo sapiens, UniProt O14684)
T1 sequence (O14684 whole entry): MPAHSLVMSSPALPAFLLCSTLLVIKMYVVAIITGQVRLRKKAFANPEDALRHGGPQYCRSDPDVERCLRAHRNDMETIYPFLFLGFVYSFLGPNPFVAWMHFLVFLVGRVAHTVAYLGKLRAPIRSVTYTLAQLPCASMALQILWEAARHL
Description: Inhibition of mPGES-1 in human whole blood assessed as reduction in LPS-induced PGE2 production preincubated for 30 mins followed by LPS stimulation for 20 to 24 hrs by LC/MS/MS analysis

Prostaglandin E synthase [2] = biological target: T1, Prostaglandin E synthase; assay: Inhibition of mPGES-1 in human A549 cells assessed as reduction in recombinant human interleukin-1 beta-induced PGE2 production preincubated for 30 mins measured after 18 hrs by ELISA; format: cell-based
Prostaglandin E synthase [3] = biological target: T1, Prostaglandin E synthase; assay: Inhibition of human mPGES-1 expressed in 293E cells assessed as reduction in conversion of PGH2 to PGE2 after 1.5 min by LC/MS analysis; format: cell-based
[4] = Time at which plasma concentration remains above human whole blood IC50 level in human at 200 mg, po; format: ADME
CYP2C9 = CYP2C9 (Homo sapiens, UniProt P11712); assay: Inhibition of CYP2C9 in human hepatic microsomes assessed as reduction in probe substrate metabolism at 10 uM; format: ADME; details: liver microsomes
Chain of CYP2C9 (P11712 whole entry): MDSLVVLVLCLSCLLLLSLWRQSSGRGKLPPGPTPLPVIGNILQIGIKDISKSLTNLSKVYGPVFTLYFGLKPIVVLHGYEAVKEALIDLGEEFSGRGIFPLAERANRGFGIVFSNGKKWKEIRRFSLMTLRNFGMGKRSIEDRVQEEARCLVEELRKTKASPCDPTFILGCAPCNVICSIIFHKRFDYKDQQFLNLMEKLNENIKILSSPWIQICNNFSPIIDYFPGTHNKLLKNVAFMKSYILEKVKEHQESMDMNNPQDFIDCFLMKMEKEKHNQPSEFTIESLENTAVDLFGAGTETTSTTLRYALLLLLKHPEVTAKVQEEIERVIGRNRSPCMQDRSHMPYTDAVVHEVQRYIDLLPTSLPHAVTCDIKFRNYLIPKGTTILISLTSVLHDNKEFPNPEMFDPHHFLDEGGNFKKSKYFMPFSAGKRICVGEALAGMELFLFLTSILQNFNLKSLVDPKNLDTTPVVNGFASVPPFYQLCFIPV

[5] = Drug metabolism in dog liver microsomes at 4 uM; format: ADME, Canis lupus familiaris; details: read-out: Drug metabolism
[6] = Drug metabolism in rat liver microsomes at 4 uM; format: ADME; details: read-out: Drug metabolism
[7] = Cmax in rat at 5 mg/kg, po; format: ADME, organism-based; parameters: dose 5 mg/kg, route oral; details: in vivo
CYP3A4 [8] = biological target: T2, CYP3A4 (Homo sapiens, UniProt P08684); assay: Time dependent inhibition of CYP3A4 in human hepatic microsomes assessed as reduction in probe substrate metabolism at 10 uM; format: ADME; details: liver microsomes, read-out: TDI
T2 sequence (P08684 whole entry): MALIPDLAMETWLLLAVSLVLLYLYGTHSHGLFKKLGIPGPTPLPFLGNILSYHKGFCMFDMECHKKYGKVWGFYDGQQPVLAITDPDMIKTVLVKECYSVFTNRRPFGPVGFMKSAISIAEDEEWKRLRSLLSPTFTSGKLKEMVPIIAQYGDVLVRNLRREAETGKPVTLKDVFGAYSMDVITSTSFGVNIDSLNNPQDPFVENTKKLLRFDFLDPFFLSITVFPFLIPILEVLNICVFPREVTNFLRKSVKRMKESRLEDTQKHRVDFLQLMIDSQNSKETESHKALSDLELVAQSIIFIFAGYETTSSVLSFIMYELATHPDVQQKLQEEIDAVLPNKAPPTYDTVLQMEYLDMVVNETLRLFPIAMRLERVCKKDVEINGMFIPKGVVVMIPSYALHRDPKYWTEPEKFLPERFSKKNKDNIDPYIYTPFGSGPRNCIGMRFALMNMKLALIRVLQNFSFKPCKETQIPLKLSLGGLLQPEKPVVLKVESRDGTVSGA

[9] = Drug metabolism in human liver microsomes at 4 uM; format: ADME; details: read-out: Drug metabolism
[10] = Volume of distribution at steady state in rat at 1 mg/kg, iv; format: ADME, organism-based; details: in vivo, read-out: Vdss
CYP2D6 = CYP2D6 (Homo sapiens, UniProt P10635); assay: Inhibition of CYP2D6 in human hepatic microsomes assessed as reduction in probe substrate metabolism at 10 uM; format: ADME; details: liver microsomes
Chain of CYP2D6 (P10635 whole entry): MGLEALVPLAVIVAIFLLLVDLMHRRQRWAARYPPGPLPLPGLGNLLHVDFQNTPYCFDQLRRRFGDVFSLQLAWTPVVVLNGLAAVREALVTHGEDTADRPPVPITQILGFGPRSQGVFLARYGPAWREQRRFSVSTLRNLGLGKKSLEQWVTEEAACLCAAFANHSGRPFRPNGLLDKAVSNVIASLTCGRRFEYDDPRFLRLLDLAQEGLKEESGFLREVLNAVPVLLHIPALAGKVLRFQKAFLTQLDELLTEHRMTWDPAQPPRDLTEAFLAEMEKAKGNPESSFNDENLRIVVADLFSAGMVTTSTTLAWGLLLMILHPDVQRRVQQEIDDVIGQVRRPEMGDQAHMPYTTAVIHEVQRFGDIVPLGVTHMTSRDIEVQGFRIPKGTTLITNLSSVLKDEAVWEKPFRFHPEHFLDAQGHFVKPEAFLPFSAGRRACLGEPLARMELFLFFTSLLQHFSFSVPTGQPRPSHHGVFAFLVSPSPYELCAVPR

[11] = Clearance in rat at 1 mg/kg, iv; format: ADME, organism-based; details: in vivo
[12] = Half life in rat at 1 mg/kg, iv; format: ADME, organism-based; details: in vivo
[13] = Oral bioavailability in rat at 5 mg/kg; format: ADME, organism-based; details: in vivo
CYP3A4 [14] = biological target: T2, CYP3A4; assay: Inhibition of CYP3A4 in human hepatic microsomes assessed as reduction in probe substrate metabolism at 10 uM; format: ADME; details: liver microsomes
Prostaglandin E synthase [15] = biological target: T1, Prostaglandin E synthase; assay: Inhibition of mPGES-1 (unknown origin)
[16] = Oral bioavailability in Beagle dog at 15 mg/kg; format: ADME, organism-based, Canis lupus familiaris; details: in vivo
[17] = Clearance in Beagle dog at 1 mg/kg, iv; format: ADME, organism-based, Canis lupus familiaris; details: in vivo
Prostaglandin E synthase [18] = biological target: T3, Prostaglandin E synthase (Canis lupus familiaris, UniProt A0SYQ0); assay: Inhibition of dog mPGES-1
T3 sequence (A0SYQ0 whole entry): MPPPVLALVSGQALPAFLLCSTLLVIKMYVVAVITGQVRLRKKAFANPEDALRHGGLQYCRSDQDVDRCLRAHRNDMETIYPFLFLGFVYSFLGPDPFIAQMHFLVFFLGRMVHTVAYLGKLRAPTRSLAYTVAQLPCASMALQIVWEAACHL

[19] = Volume of distribution at steady state in Beagle dog at 1 mg/kg, iv; format: ADME, organism-based, Canis lupus familiaris; details: in vivo, read-out: Vdss
[20] = Inhibition of rat mPGES-1
[21] = Time at which plasma concentration remains above dog whole blood IC50 level in Beagle dog at 3 mg/kg, po; format: ADME, organism-based, Canis lupus familiaris; details: in vivo
Prostaglandin E synthase [22] = biological target: T3, Prostaglandin E synthase; assay: Inhibition of mPGES-1 in dog whole blood; format: tissue-based

Compound: Cc1cccc2ccc(N3CC[C@H](C(=O)N[C@H](C)C(C)C)C(C)(C)C3)nc12
IC50 (Prostaglandin E synthase [1]): 77 nM
IC50 (Prostaglandin E synthase [2]): 89 nM
IC50 (Prostaglandin E synthase [3]): 12 nM

Compound: Cc1ccc(-c2cc(C(F)(F)F)nn2-c2ccc(S(N)(=O)=O)cc2)cc1 [CELECOXIB]
Time [4]: 8 to 12 h

Compound: CC1(C)CN(c2ccc(C(F)(F)F)cc2)CC[C@H]1C(=O)N[C@H]1CCC[C@H](CO)C1
IC50 (Prostaglandin E synthase [2]): 4500 nM
IC50 (Prostaglandin E synthase [3]): 504 nM

Compound: CC1(C)CN(c2ccc3cccc(Cl)c3n2)CC[C@H]1C(=O)N[C@H]1CC[C@@H](CO)CC1
IC50 (Prostaglandin E synthase [2]): > 10000 nM
IC50 (Prostaglandin E synthase [3]): 3720 nM

Compound: Cc1cc2nc(N3CCC(C(=O)NC4CCCC4)CC3)n(-c3ccc(F)c(C)c3)c2cc1C
IC50 (Prostaglandin E synthase [15]): 25 nM

Further compounds by falling IC50 (Prostaglandin E synthase [2]), results first:

IC50 (Prostaglandin E synthase [1]): 36 nM
IC50 (Prostaglandin E synthase [2]): 72 nM
IC50 (Prostaglandin E synthase [3]): 7 nM
Compound: Cc1cccc2ccc(N3CC[C@H](C(=O)N[C@H]4CCCOC4)C(C)(C)C3)nc12

IC50 (Prostaglandin E synthase [1]): 23 nM
IC50 (Prostaglandin E synthase [2]): 30 nM
IC50 (Prostaglandin E synthase [3]): 4 nM
Compound: CC1(C)CN(c2ccc3cccc(Cl)c3n2)CC[C@@H]1C(=O)N[C@H]1CC[C@@H](CO)CC1

IC50 (Prostaglandin E synthase [1]): 51 nM
IC50 (Prostaglandin E synthase [2]): 23 nM
IC50 (Prostaglandin E synthase [3]): 6 nM
Compound: Cc1cccc2ccc(N3CC[C@H](C(=O)N[C@H]4CCOC4)C(C)(C)C3)nc12

IC50 (Prostaglandin E synthase [1]): 5 nM
IC50 (Prostaglandin E synthase [2]): 11 nM
IC50 (Prostaglandin E synthase [3]): 3 nM
Compound: CC1(C)CN(c2ccc(C(F)(F)F)cc2)CC[C@@H]1C(=O)N[C@H]1CCC[C@H](CO)C1

inhibition at 10 µM (CYP2C9): 15%
metabolised at 4 µM [5]: 13%
metabolised at 4 µM [6]: 16%
Cmax [7]: 2050 nM
inhibition at 10 µM (CYP3A4 [8]): 39%
metabolised at 4 µM [9]: 20%
Vd [10]: 2.3 L/kg
bioavailability [16]: 74%
inhibition at 10 µM (CYP2D6): 0%
clearance [17]: 3.62 mL/min/kg
clearance [11]: 14 mL/min/kg
IC50 (Prostaglandin E synthase [1]): 7 nM
IC50 (Prostaglandin E synthase [18]): 11 nM
half-life [12]: 2.3 h
Vd [19]: 1.6 L/kg
IC50 [20]: 7870 nM
Time [21]: 24 h
IC50 (Prostaglandin E synthase [2]): 5 nM
IC50 (Prostaglandin E synthase [22]): 23 to 28 nM
bioavailability [13]: 100%
inhibition at 10 µM (CYP3A4 [14]): 10%
IC50 (Prostaglandin E synthase [3]): 2 nM
Compound: Cc1cccc2ccc(N3CC[C@H](C(=O)N[C@H]4CCO[C@H](CO)C4)C(C)(C)C3)nc12

inhibition at 10 µM (CYP2C9): 64%
metabolised at 4 µM [5]: 57%
metabolised at 4 µM [6]: 73%
Cmax [7]: 1430 nM
inhibition at 10 µM (CYP3A4 [8]): 82%
metabolised at 4 µM [9]: 50%
Vd [10]: 1.3 L/kg
inhibition at 10 µM (CYP2D6): 0%
clearance [11]: 34 mL/min/kg
IC50 (Prostaglandin E synthase [1]): 1 nM
half-life [12]: 0.6 h
IC50 (Prostaglandin E synthase [2]): 3 nM
bioavailability [13]: 30%
inhibition at 10 µM (CYP3A4 [14]): 43%
IC50 (Prostaglandin E synthase [3]): 1 nM
Compound: Cc1cccc2ccc(N3CC[C@H](C(=O)N[C@H]4CCC[C@H](CO)C4)C(C)(C)C3)nc12

inhibition at 10 µM (CYP2C9): 54%
metabolised at 4 µM [5]: 60%
metabolised at 4 µM [6]: 64%
Cmax [7]: 1450 nM
inhibition at 10 µM (CYP3A4 [8]): 75%
metabolised at 4 µM [9]: 46%
Vd [10]: 1.4 L/kg
inhibition at 10 µM (CYP2D6): 4%
clearance [11]: 21 mL/min/kg
IC50 (Prostaglandin E synthase [1]): 2 nM
half-life [12]: 2.6 h
IC50 (Prostaglandin E synthase [2]): 2 nM
bioavailability [13]: 54%
inhibition at 10 µM (CYP3A4 [14]): 35%
IC50 (Prostaglandin E synthase [3]): 1 nM
Compound: Cc1cccc2ccc(N3CC[C@H](C(=O)N[C@H]4CC[C@@H](CO)CC4)C(C)(C)C3)nc12
